Results on six compounds are retold here after paper PMC9216541, “Design and synthesis of Nrf2-derived hydrocarbon stapled peptides for the disruption of protein-DNA-interactions” (PLoS ONE, 2022).

Where a SMILES comes first, the peptide text is derived from it. Bridges are numbered along the chain shown (N, C = ends). [ ]: non-standard residue; d: D form. The star is where a group is joined. FITC = O=C1OC2(c3ccc(O)cc3Oc3cc(O)ccc32)c2ccc(NC(=S)*)cc21; R8 = C=CCCCCCC[C@@](C)(N)C(=O)O; R5 = C=CCCC[C@@](C)(N)C(=O)O; S5 = C=CCCC[C@](C)(N)C(=O)O; GABA = NCCCC(=O)O

The target in data set [1] is peptide 1 (stapled Nrf2-derived) (UniProt Q16236). As to the kind of experiment: fluorescence polarization. The conditions noted are these: FP: 50 mM Tris/HCl pH 7.5, 100 mM NaCl, 2 mM MgCl2, 0.5 mM EDTA, 10 ug/mL BSA, 0.1 mM DTT, 0.01% Tween-20, 10 nM DNA, 60 min RT; EMSA: 10 mM Tris pH 7.5, 100 mM.
Data set [2] has as its target peptide 2 (stapled Nrf2-derived) (UniProt Q16236). As to the kind of experiment: fluorescence polarization. The conditions noted are these: FP: 50 mM Tris/HCl pH 7.5, 100 mM NaCl, 2 mM MgCl2, 0.5 mM EDTA, 10 ug/mL BSA, 0.1 mM DTT, 0.01% Tween-20, 10 nM DNA, 60 min RT; EMSA: 10 mM Tris pH 7.5, 100 mM. Background: Polarisation of emitted light reports the rotation of a fluorescent probe.

In data set [3] the target is peptide 3 (stapled Nrf2-derived) (UniProt Q16236). As to the kind of experiment: fluorescence polarization. The conditions noted are these: FP: 50 mM Tris/HCl pH 7.5, 100 mM NaCl, 2 mM MgCl2, 0.5 mM EDTA, 10 ug/mL BSA, 0.1 mM DTT, 0.01% Tween-20, 10 nM DNA, 60 min RT; EMSA: 10 mM Tris pH 7.5, 100 mM.
The target in data set [4] is peptide 4 (stapled Nrf2-derived) (UniProt Q16236). The data set can be described thus: fluorescence polarization. The conditions noted are these: FP: 50 mM Tris/HCl pH 7.5, 100 mM NaCl, 2 mM MgCl2, 0.5 mM EDTA, 10 ug/mL BSA, 0.1 mM DTT, 0.01% Tween-20, 10 nM DNA, 60 min RT; EMSA: 10 mM Tris pH 7.5, 100 mM.
For data set [5], the target named is peptide 5 (linear Nrf2-derived) (UniProt Q16236). As to the kind of experiment: fluorescence polarization. The conditions noted are these: FP: 50 mM Tris/HCl pH 7.5, 100 mM NaCl, 2 mM MgCl2, 0.5 mM EDTA, 10 ug/mL BSA, 0.1 mM DTT, 0.01% Tween-20, 10 nM DNA, 60 min RT; EMSA: 10 mM Tris pH 7.5, 100 mM.
Data set [6] has as its system peptide 6 (scrambled). As to the kind of experiment: fluorescence polarization. The conditions noted are these: FP: 50 mM Tris/HCl pH 7.5, 100 mM NaCl, 2 mM MgCl2, 0.5 mM EDTA, 10 ug/mL BSA, 0.1 mM DTT, 0.01% Tween-20, 10 nM DNA, 60 min RT; EMSA: 10 mM Tris pH 7.5, 100 mM.
Data set [7] concerns cellular DNA in fixed, permeabilized HeLa cells. As to the kind of experiment: Incubation with fixed, permeabilized HeLa cells, wide-field fluorescence microscopy. It counts as cell-based. The conditions noted are these: FITC-labeled peptide. As for the experimental part:
(§1) HeLa cells (ATCC CCL-2) were cultured in Dulbecco’s Modified Eagle Medium (DMEM) supplemented with 10% FBS (Pan Biotech), 2 mM L-glutamine, 100 U/ml penicillin and 100 μg/ml streptomycin at 37°C and 5% CO2.
For fixing and permeabilization, HeLa cells were incubated with pre-warmed 4% formaldehyde for 20 min at 37°C, followed by permeabilization with 0.25% Triton-X 100 for 20 min at room temperature. For the evaluation of the effect of proteases, cOmplete protease inhibitor mix (1X) 500 μl was added to the fixed cells for 30 min. Peptides were incubated at 1 μM for 3 h in the presence of the protease inhibitor mix, followed by 3 min incubation with 1 μM of the nucleic acid marker DAPI, then extensively washed with DPBS and subjected to wide-field imaging.
(§2) Imaging was performed using an Olympus IX81 microscope with 20x and 60x UPLSAPO objectives and standard fluorescence filter sets.

Data set [8] has as its system living HeLa cells. The data set can be described thus: Cell permeability in living HeLa cells, fluorescence microscopy. It is filed as cell-based. As for the experimental part:
as §1
To investigate the cell permeability of peptide 4, living HeLa cells were washed twice and incubated for 5 min with DPBS + Mg/Ca, ([…]) in a CO2 incubator. Cells were subsequently incubated in the presence of 10 μM of peptide 4 in DPBS + Mg/Cl for 5 min, followed by two washes with DPBS + Mg/Cl and final addition of HEPES-buffered imaging medium containing 0.5 μM propidium iodide.
as §2

The nature of data set [9]: CD measurements, helical fraction from ellipticity at 222 nm. It is filed as physicochemical. The conditions noted are these: peptide 20 μM in water, calculated from [θ]obs at 222 nm by established methods (ref 30). On the procedure: CD measurements were carried out on a JASCO J-715 spectrometer using water as the solvent for all measurements. The peptides were solved in water to a concentration of 20 μM. The linear peptide 5 was used as a control compound. The helical fraction for peptides 1–5 was calculated from the observed ellipticity [θ]obs at 222 nm using established methods.

Data set [10] has as its target 6FAM-labeled MARE23 sequence (Nrf2:sMaf binding dsDNA). The data set can be described thus: Fluorescence polarization assay with 6FAM-labeled MARE23 dsDNA. The conditions noted are these: FP, 10 nM 6FAM-MARE23 dsDNA, peptide 25 μM - 6.1 nM, 50 mM Tris/HCl pH 7.5, 100 mM NaCl, 60 min at room temperature; quadruplicates, three independent replicates, four parameter logistic fit. On the procedure:
For DNA hybridization, equimolar amounts of fluorescein- or 6FAM-labeled sense and unlabeled antisense oligonucleotides were mixed in 1X annealing buffer (10 mM Tris pH 7.5, 100 mM NaCl, 1 mM EDTA) to yield a final concentration of 20 μM of dsDNA. Subsequently, mixtures were heated to 95°C for 10 min followed by cooling to 20°C at a rate of 1°C per minute. Afterwards, dsDNA probes were diluted to 10 nm in FP assay buffer (50 mM Tris/HCl pH 7.5, 100 mM NaCl, 2 mM MgCl2, 0.5 mM EDTA, 10 μg/mL BSA, 0.1 mM DTT, 0.01% Tween-20) and mixed with serial dilutions of peptides 1–6 (25 μM—6.1 nm), that were generated with the Echo 520 liquid handler (Labcyte Inc.), in a total volume of 10.2 μL per well in black 384-well small volume microplates (Greiner Bio-One). The microplates were shaken at 1500 rpm for 30 s, centrifuged at 200 x g for 60 s and subsequently incubated for 60 min in a humidified, dark chamber at room temperature. Finally, the fluorescence polarization was analyzed on an Infinite® M1000 microplate reader (Tecan) using the appropriate settings for fluorescein/6FAM, i.e. an excitation wavelength of 470 ± 2.5 nm and an emission wavelength of 520 ± 7.5 nm.
Each concentration was analyzed in quadruplicates and resulting mean fluorescence polarization and standard deviation was fit to a four parameter logistic model with Origin (OriginLab, Northampton, MA) using the following equation: y=A1−A2/1+x/x0^p+A2
Each experiment was performed in three independent replicates.
Figure S5. Fluorescence polarization binding studies of stapled peptides 1-6 towards target DNA sequence MARE23 (5’-[6FAM][…]-3’ and 5’-[…]-3’) (A, C) and control DNA sequence MARE23_scrambled (5’-[6FAM][…]-3’ and 5’-GAGTAA-TAGCTATGACGATATTCCG-3’) (B and D, respectively). The obtained polarization values were either baseline-corrected (A, B) or corrected for the changes in fluorescence intensity in the free/bound state of the fluorescently labeled dsDNA probes (C, D).^[1] The resulting dissociation constants are listed in the inset tables in the respective panels. […]

The test system of data set [11] is dsDNA probe (MARE23, MARE23_scrambled, randomized sequence). The data set can be described thus: Electrophoretic mobility shift assay. It counts as binding. The conditions noted are these: 1 pmol dsDNA probe with excess of peptide, 30 min at room temperature, native 15% TBE polyacrylamide gel. On the procedure:
DNA hybridization was performed as described above. Afterwards, 1 pmol of the dsDNA probe was incubated with the respective excess of peptide in 1X assay buffer (10 mM Tris pH 7.5, 100 mM KCl, 2 mM MgCl2, 0.5 mM EDTA, 10 μg/mL BSA, 0.1 mM DTT, 2.5% glycerol) in a final volume of 10 μL and incubated for 30 min at room temperature. Prior to gel electrophoresis, samples were mixed with 2 μL of 6X loading buffer (60 mM Tris pH 7.5, 15% Ficoll 400) and the reaction mixtures were then loaded onto hand-cast, native 15% TBE polyacrylamide gels. Separation was performed for 45 min at a current of 20 mA per gel in a cold room at 4°C and the gels were analyzed on a Typhoon FLA 9500 laser scanner (GE Healthcare) using the 473 nm laser for excitation and a 510 nm long-pass filter (LPB (510LP)) for emission of fluorescein and FAM, respectively.
[picture] Figure S6. Electrophoretic mobility shift assays of peptides 4 and 5 with MARE23 (5’-[6FAM][…]-3’ and 5’-[…]-TTCCG-3’).
Figure S7. Electrophoretic mobility shift assays of peptides 4 and 5 with MARE23_scrambled (5’-[6FAM][…]-3’ and 5’-[…]-TTCCG-3’).
Figure S8. Electrophoretic mobility shift assays of peptides 4 and 5 with DNA with a randomized sequence (5’-[6FAM][…]-3’ and 5’-GAG-[…]-3’).
(In general: Mobility shift assays separate free from complexed probe on a gel.)

By Kd is commonly meant a measure of binding affinity in units of concentration. A higher Kd goes with weaker binding. “CGGAATCAATGACTCATTGTTACTC (double strand) [MARE23]”: the Kd in [1] is 1600 nM; in data set [2], 3900 nM; in [3], 1500 nM; in data set [4] it was 1200 nM; in [5], 7900 nM; in data set [6], 8100 nM.
With “IRRRGKNKVAAQNCRKRK [FITC-5, linear peptide 5 with N-terminal FITC-GABA- label]”, in data set [7] (fixed (4% formaldehyde) and permeabilized (0.25% Triton-X 100) HeLa cells, DAPI co-stain), the “enrichment in the nucleus” value is given as “no enrichment in the nucleus could be observed”. Further, the “amount of peptide detectable in cells” value in data set [7] (fixed and permeabilized HeLa cells, identical exposure times) was “only small amounts”.
For the compound `CC[C@H](C)[C@H](NC(=O)CCCNC(=S)Nc1ccc2c(c1)C(=O)OC21c2ccc(O)cc2Oc2cc(O)ccc21)C(=O)N[C@@H](CCCNC(=N)N)C(=O)N[C@@H](CCCNC(=N)N)C(=O)N[C@@H](CCCNC(=N)N)C(=O)N[C@]1(C)CCCCCCC=CCCC[C@@](C)(C(=O)N[C@@H](CC(N)=O)C(=O)N[C@@H](CS)C(=O)N[C@@H](CCCNC(=N)N)C(=O)N[C@@H](CCCCN)C(=O)N[C@@H](CCCNC(=N)N)C(=O)N[C@@H](CCCCN)C(N)=O)NC(=O)[C@H](C)NC(=O)[C@H](C)NC(=O)[C@H](C(C)C)NC(=O)[C@H](CCCCN)NC(=O)[C@H](CC(N)=O)NC(=O)[C@H](CCCCN)NC1=O` [FITC-4] ({FITC-GABA}-IRRR[R8]KNKVAA[S5]NCRKRK-NH2; staple 5-12), the “membrane permeability in living cells” value in [8] (10 μM peptide in DPBS + Mg/Ca, 5 min, serum-free, washed, FITC fluorescence microscopy) is given as “high membrane permeability in living cells”. Further, the “viability / membrane integrity of peptide-containing cells (propidium iodide)” value in data set [8] (10 μM peptide, 0.5 μM propidium iodide in imaging medium) was “majority of peptide-containing cells were alive”.
For the compound `CC[C@H](C)[C@H](NC(C)=O)C(=O)N[C@@H](CCCNC(=N)N)C(=O)N[C@@H](CCCNC(=N)N)C(=O)N[C@@H](CCCNC(=N)N)C(=O)NCC(=O)N[C@@H](CCCCN)C(=O)N[C@@H](CC(N)=O)C(=O)N[C@@H](CCCCN)C(=O)N[C@]1(C)CCCC=CCCC[C@@](C)(C(=O)N[C@@H](CC(N)=O)C(=O)N[C@@H](CS)C(=O)N[C@@H](CCCNC(=N)N)C(=O)N[C@@H](CCCCN)C(=O)N[C@@H](CCCNC(=N)N)C(=O)N[C@@H](CCCCN)C(N)=O)NC(=O)[C@H](C)NC(=O)[C@H](C)NC1=O` [compound 3] (Ac-IRRRGKNK[R5]AA[S5]NCRKRK-NH2; staple 9-12), the “Helicity (calculated) / α-helical content” value in data set [9] was 36%. In addition, the Kd in [10] stood at 1500 ± 200 nM.
As for “IRRRS5KNKS5AAQNCRKRK (sidechain bridge or staple) [compound 1, Nrf2-derived i,i+4 hydrocarbon stapled peptide (505/509), N-terminally acetylated, C-terminal amide]”, the “Helicity (calculated) / α-helical content” value in data set [9] was 20%. The same compound registered a Kd in data set [10] of 1600 ± 40 nM.
As to `CC[C@H](C)[C@H](NC(C)=O)C(=O)N[C@@H](CCCNC(=N)N)C(=O)N[C@@H](CCCNC(=N)N)C(=O)N[C@@H](CCCNC(=N)N)C(=O)N[C@]1(C)CCCCCCC=CCCC[C@@](C)(C(=O)N[C@@H](CC(N)=O)C(=O)N[C@@H](CS)C(=O)N[C@@H](CCCNC(=N)N)C(=O)N[C@@H](CCCCN)C(=O)N[C@@H](CCCNC(=N)N)C(=O)N[C@@H](CCCCN)C(N)=O)NC(=O)[C@H](C)NC(=O)[C@H](C)NC(=O)[C@H](C(C)C)NC(=O)[C@H](CCCCN)NC(=O)[C@H](CC(N)=O)NC(=O)[C@H](CCCCN)NC1=O` [compound 4] (Ac-IRRR[R8]KNKVAA[S5]NCRKRK-NH2; staple 5-12), in [9], the “Helicity (calculated) / α-helical content” value is 18%. In [10], binding was characterised by a dissociation constant (Kd) of 1200 ± 300 nM. Moreover, the “mobility shift of DNA” value in [11] is listed as “induce a mobility shift of DNA at a lower concentration than the unstapled peptide 5”.
